The source of these data is patent US8748459B2, “Pyridinoylpiperidines as 5-HT1F agonists” (Eli Lilly and Company, priority 2002, dated 2014).

In this assay the test system is rabbit saphenous vein. Briefly: rabbit saphenous vein contraction. The procedure: Representative compounds of the present invention were tested in a rabbit saphenous vein contraction assay to measure their ability to mediate vasoconstriction. […] The tips of two 30-gauge stainless steel hypodermic needles bent into an L-shape were slipped into the polyetylene tubing. Vessels were gently pushed from the cannula onto the needles. The needles were then separated so that the lower one was attached with thread to a stationary glass rod and the upper one was tied with thread to the transducer. […] An initial optimum resting force of 1 gm was applied to the saphenous vein. Isometric contractions were recorded as changes in grams of force on a Beckman Dynograph with Statham UC-3 transducers and microscale accessory attachments. Tissues were allowed to equilibrate 1 to 2 hours before exposure to drugs. Cumulative agonist concentration-response curves were generated in tissues and no tissue was used to generate more than two agonist concentration-response curves. […] This vasoconstriction assay measures two important parameters, saphenous vein contraction (EC50) and maximal contraction as a % maximal KCl response (%max KCl).

For the compound `CNS(=O)(=O)Cc1ccc2[nH]cc(CCN(C)C)c2c1` [sumatriptan], the “corrected vasoconstriction EC50” value (EC50 divided by %max KCl) amounted to 10.3 nM. The EC50 (Oryctolagus cuniculus) worked out at 660 nM.
